Measured values taken from BindingDB's records for doi:10.1016/S0960-894X(97)00175-3 (1997).

molecular target: Squalene monooxygenase (Sus scrofa); assay: In vitro inhibition of pig liver microsomal squalene epoxidase (SE) by measuring the extend of cholesterol radiolabeling after incubation with [14C]mevalonate

Row | Structure (SMILES) | IC50 [µM]
1 | CCN(C/C=C/C#CC(C)(C)C)Cc1cccc(OC[Si](C)(C)c2ccc(N=[N+]=[N-])cc2)c1 [(3-{[(4-Azido-phenyl)-dimethyl-silanyl]-methoxy}-benzyl)-(6,6-dimethyl-hept-2-en-4-ynyl)-ethyl-amine] | 0.52
2 | CCN(CC#Cc1ccccc1)Cc1cccc(OCc2cc(-c3ccsc3)cs2)c1 [[3-([3,3']Bithiophenyl-5-ylmethoxy)-benzyl]-ethyl-(3-phenyl-prop-2-ynyl)-amine] | 0.1

Now from value to molecule:

Row | IC50 [µM] | Structure (SMILES)
3 | > 100 | CCN(CC#Cc1ccccc1N=[N+]=[N-])Cc1cccc(OCc2cc(-c3ccsc3)cs2)c1 [[3-(2-Azido-phenyl)-prop-2-ynyl]-[3-([3,3']bithiophenyl-5-ylmethoxy)-benzyl]-ethyl-amine]
4 | 0.27 | CCN(CC#Cc1cccc(N=[N+]=[N-])c1)Cc1cccc(OCc2cc(-c3ccsc3)cs2)c1 [[3-(3-Azido-phenyl)-prop-2-ynyl]-[3-([3,3']bithiophenyl-5-ylmethoxy)-benzyl]-ethyl-amine]
5 | 0.96 | CCN(CC#Cc1ccc(N=[N+]=[N-])cc1)Cc1cccc(OCc2cc(-c3ccsc3)cs2)c1 [[3-(4-Azido-phenyl)-prop-2-ynyl]-[3-([3,3']bithiophenyl-5-ylmethoxy)-benzyl]-ethyl-amine]
